The source made the active and inactive calls. The rule behind the calls is not given here.
Columns and labels:
[1] = system: Escherichia coli; test: Inhibition of swarming motility of Escherichia coli PY31 at 16 ug/mL incubated for 16 to 20 hrs relative to control; type: functional
[2] = system: Escherichia coli; test: Antibiofilm activity against Escherichia coli UTI89 incubated for 2 days at 23 degC followed by 1 day incubation at RT; type: functional
[3] = system: Pseudomonas aeruginosa; test: Inhibition of swarming motility of Pseudomonas aeruginosa HONKR at 16 ug/mL incubated for 16 to 20 hrs relative to control; type: functional
[4] = system: Escherichia coli; test: Inhibition of swarming motility of Escherichia coli clinical isolates incubated for 16 to 20 hrs; type: functional
[5] = system: Pseudomonas aeruginosa; test: Inhibition of swarming motility of Pseudomonas aeruginosa clinical isolates incubated for 16 to 20 hrs; type: functional
[6] = system: Burkholderia cepacia; test: Inhibition of swarming motility of Burkholderia cepacia clinical isolates incubated for 16 to 20 hrs; type: functional
[7] = system: Salmonella enterica; test: Inhibition of swarming motility of Salmonella enterica clinical isolates incubated for 16 to 20 hrs; type: functional
[8] = system: Pseudomonas aeruginosa; test: Inhibition of swarming motility of Pseudomonas aeruginosa HONKR at 10 ug incubated for 18 to 24 hrs; type: functional, organism-based

Compound	inhibition at 16 µg/mL [1] [%]	MBIC50 [2]	inhibition at 16 µg/mL [3] [%]	further results
CNC(=N)[C@@H]1C[C@]2(C)[C@H]3CC=C4[C@@H]5CC(C)(C)CC[C@]5(C(=O)O)CC[C@@]4(C)[C@]3(C)CC[C@H]2C(C)(C)[C@H]1O	30	>=32 ug ml-1	< 20	–
CC1(C)CC[C@]2(C(=O)O)CC[C@]3(C)C(=CC[C@@H]4[C@@]5(C)C[C@@H](C6=NCCCN6)[C@H](O)C(C)(C)[C@@H]5CC[C@]43C)[C@@H]2C1	60	4 µg/mL	< 20	–
CN(C)CCNC(=O)[C@@H]1C[C@]2(C)[C@H]3CC=C4[C@@H]5CC(C)(C)CC[C@]5(C(=O)O)CC[C@@]4(C)[C@]3(C)CC[C@H]2C(C)(C)[C@H]1O	30	4 µg/mL	< 20	–
CC1(C)CC[C@]2(C(=O)O)CC[C@]3(C)C(=CC[C@@H]4[C@@]5(C)C[C@@H](c6ncc[nH]6)[C@H](O)C(C)(C)[C@@H]5CC[C@]43C)[C@@H]2C1	> 90	16 µg/mL	< 20	–
COC(=O)[C@]12CCC(C)(C)C[C@H]1C1=CC[C@@H]3[C@@]4(C)CC[C@H](O)C(C)(C)[C@@H]4CC[C@@]3(C)[C@]1(C)CC2 [METHYL OLEANOLATE]	–	–	30	–
CN1CCN=C1[C@@H]1C[C@]2(C)[C@H]3CC=C4[C@@H]5CC(C)(C)CC[C@]5(C(=O)O)CC[C@@]4(C)[C@]3(C)CC[C@H]2C(C)(C)[C@H]1O	< 20	>=32 ug ml-1	> 20	–
C[C@H]1[C@H](C)CC[C@]2(C(=O)O)CC[C@]3(C)C(=CC[C@@H]4[C@@]5(C)[C@H](O)[C@@H](O)[C@@H](O)[C@](C)(CO)[C@@H]5CC[C@]43C)[C@H]12	–	–	80	–
CCCN(C)C(=O)[C@@H]1C[C@]2(C)[C@H]3CC=C4[C@@H]5CC(C)(C)CC[C@]5(C(=O)O)CC[C@@]4(C)[C@]3(C)CC[C@H]2C(C)(C)[C@H]1O	50	4 µg/mL	< 20	–
CC1(C)CC[C@]2(C(=O)O)CC[C@]3(C)C(=CC[C@@H]4[C@@]5(C)CC[C@H](O)C(C)(C)[C@@H]5CC[C@]43C)[C@@H]2C1 [OLEANOLIC_ACID]	80	>=32 ug ml-1	> 90	INH [4]: 16 µg/mL; INH [5]: 8 µg/mL; INH [6]: 0.5 µg/mL; INH [7]: >64 µg/mL
CN1C[C@@H]2C[C@]3(C)[C@H]4CC=C5[C@@H]6CC(C)(C)CC[C@]6(C(=O)O)CC[C@@]5(C)[C@]4(C)CC[C@H]3C(C)(C)[C@H]2OC1=O	< 20	>=32 ug ml-1	< 20	–
CC1(C)CC[C@]2(C(=O)O)CC[C@]3(C)C(=CC[C@@H]4[C@@]5(C)Cc6cnc(N)nc6C(C)(C)[C@@H]5CC[C@]43C)[C@@H]2C1	90	>=32 ug ml-1	80	–
Cn1cc2c(n1)C(C)(C)[C@@H]1CC[C@]3(C)[C@H](CC=C4[C@@H]5CC(C)(C)CC[C@]5(C(=O)O)CC[C@]43C)[C@@]1(C)C2	80	8 µg/mL	> 90	INH [4]: >16 µg/mL; INH [5]: 16 µg/mL; INH [6]: 1 µg/mL; INH [7]: >16 µg/mL
C[C@H]1[C@H](C)CC[C@]2(C(=O)O)CC[C@]3(C)C(=CC[C@@H]4[C@@]5(C)C[C@@H](O)[C@@H](O)[C@](C)(CO)[C@@H]5CC[C@]43C)[C@H]12	–	–	90	–
CNC(=O)[C@@H]1C[C@]2(C)[C@H]3CC=C4[C@@H]5CC(C)(C)CC[C@]5(C(=O)O)CC[C@@]4(C)[C@]3(C)CC[C@H]2C(C)(C)[C@H]1O	< 20	4 µg/mL	< 20	–
CN(C)C(=O)[C@@H]1C[C@]2(C)[C@H]3CC=C4[C@@H]5CC(C)(C)CC[C@]5(C(=O)O)CC[C@@]4(C)[C@]3(C)CC[C@H]2C(C)(C)[C@H]1O	< 20	4 µg/mL	< 20	–
C[C@H]1[C@H](C)CC[C@]2(C(=O)O)CC[C@]3(C)C(=CC[C@@H]4[C@@]5(C)C[C@@H](O)[C@@H](O)C(C)(C)[C@@H]5CC[C@]43C)[C@H]12 [PYGENIC ACID A]	–	–	> 90	–
CC1(C)CC[C@]2(C(=O)O)CC[C@]3(C)C(=CC[C@@H]4[C@@]5(C)C[C@@H](C6=NCCN6)[C@H](O)C(C)(C)[C@@H]5CC[C@]43C)[C@@H]2C1	> 90	>=32 ug ml-1	< 20	–
CC1(C)CC[C@]2(C(=O)O)CC[C@]3(C)C(=CC[C@@H]4[C@@]5(C)Cc6c(O)nc(N)nc6C(C)(C)[C@@H]5CC[C@]43C)[C@@H]2C1	> 90	>=32 ug ml-1	90	–

Compound	inhibition at 16 µg/mL [1] [%]	MBIC50 [2]	inhibition at 16 µg/mL [3] [%]	further results
CC(=O)N(C(C)=O)c1ncc2c(n1)C(C)(C)[C@@H]1CC[C@]3(C)[C@H](CC=C4[C@@H]5CC(C)(C)CC[C@]5(C(=O)O)CC[C@]43C)[C@@]1(C)C2	70	8 µg/mL	90	–
C[C@H]1[C@H](C)CC[C@]2(CO)CC[C@]3(C)C(=CC[C@@H]4[C@@]5(C)CC[C@H](O)C(C)(C)[C@@H]5CC[C@]43C)[C@H]12 [UVAOL]	–	–	< 20	–
CC1(C)CC[C@]2(C(=O)O)CC[C@]3(C)C(=CC[C@@H]4[C@@]5(C)C[C@@H](C(=O)N6CCOCC6)[C@H](O)C(C)(C)[C@@H]5CC[C@]43C)[C@@H]2C1	< 20	4 µg/mL	< 20	–
CC[C@H]1OC(=O)[C@H](C)[C@@H](O[C@H]2C[C@@](C)(OC)[C@@H](O)[C@H](C)O2)[C@H](C)[C@@H](O[C@@H]2O[C@H](C)C[C@H](N(C)C)[C@H]2O)[C@](C)(O)C[C@@H](C)CN(C)[C@H](C)[C@@H](O)[C@]1(C)O [AZITHROMYCIN]	–	–	–	INH [5]: >16 µg/mL; INH [6]: >16 µg/mL; INH [7]: >16 µg/mL
C=C(C)[C@@H]1CC[C@]2(C)CC[C@]3(C)[C@H](CC[C@@H]4[C@@]5(C)CC[C@H](O)C(C)(C)[C@@H]5CC[C@]43C)[C@@H]12 [LUPEOL]	–	–	< 20	–
CC1(C)CC[C@]2(C(=O)O)CC[C@]3(C)C(=CC[C@@H]4[C@@]5(C)C[C@@H](C(=O)NC6CC6)[C@H](O)C(C)(C)[C@@H]5CC[C@]43C)[C@@H]2C1	70	4 µg/mL	< 20	–
COLISTIN	–	–	–	inhibition [8]: inactive
CC1(C)CC[C@]2(C(=O)O)CC[C@]3(C)C(=CC[C@@H]4[C@@]5(C)Cc6cn[nH]c6C(C)(C)[C@@H]5CC[C@]43C)[C@@H]2C1	> 90	4 µg/mL	> 90	INH [4]: >16 µg/mL; INH [5]: 2 µg/mL; INH [6]: 0.5 µg/mL; INH [7]: 16 µg/mL
C[C@H]1[C@H](C)CC[C@]2(C(=O)O)CC[C@]3(C)C(=CC[C@@H]4[C@@]5(C)C[C@@H](O)[C@H](O)[C@@](C)(CO)[C@@H]5[C@H](O)C[C@]43C)[C@H]12 [MADECASSIC ACID]	–	–	90	–
CN(C)C[C@@H]1C[C@]2(C)[C@H]3CC=C4[C@@H]5CC(C)(C)CC[C@]5(C(=O)O)CC[C@@]4(C)[C@]3(C)CC[C@H]2C(C)(C)[C@H]1O	70	>=32 ug ml-1	< 20	–
CC1(C)CC[C@]2(C(=O)O)CC[C@]3(C)C(=CC[C@@H]4[C@@]5(C)C[C@@H](C6=NCCO6)[C@H](O)C(C)(C)[C@@H]5CC[C@]43C)[C@@H]2C1	< 20	8 µg/mL	< 20	–
C[C@H]1[C@H](C)CC[C@]2(C(=O)O)CC[C@]3(C)C(=CC[C@@H]4[C@@]5(C)CC[C@H](O)C(C)(C)[C@@H]5CC[C@]43C)[C@H]12 [URSOLIC ACID]	–	–	> 90	–
C[C@H]1[C@H](C)CC[C@]2(C(=O)O)CC[C@]3(C)C(=CC[C@@H]4[C@@]5(C)C[C@@H](O)[C@H](O)[C@@](C)(CO)[C@@H]5CC[C@]43C)[C@H]12 [ASIATIC ACID]	–	–	70	–
Cn1ccnc1[C@@H]1C[C@]2(C)[C@H]3CC=C4[C@@H]5CC(C)(C)CC[C@]5(C(=O)O)CC[C@@]4(C)[C@]3(C)CC[C@H]2C(C)(C)[C@H]1O	80	>=32 ug ml-1	< 20	–
CCN(C[C@@H]1C[C@]2(C)[C@H]3CC=C4[C@@H]5CC(C)(C)CC[C@]5(C(=O)O)CC[C@@]4(C)[C@]3(C)CC[C@H]2C(C)(C)[C@H]1O)C(C)=O	30	4 µg/mL	< 20	–
CC(C)CN(C)C[C@@H]1C[C@]2(C)[C@H]3CC=C4[C@@H]5CC(C)(C)CC[C@]5(C(=O)O)CC[C@@]4(C)[C@]3(C)CC[C@H]2C(C)(C)[C@H]1O	90	>=32 ug ml-1	< 20	–
C=C(C)[C@@H]1CC[C@]2(C(=O)O)CC[C@]3(C)[C@H](CC[C@@H]4[C@@]5(C)CC[C@H](O)C(C)(C)[C@@H]5CC[C@]43C)[C@@H]12 [BETULINIC ACID]	–	–	80	–
CC(C)(O/N=C(\C(=O)N[C@@H]1C(=O)N2C(C(=O)[O-])=C(C[n+]3ccccc3)CS[C@H]12)c1csc(N)n1)C(=O)O [CEFTAZIDIME]	–	–	–	INH [4]: 0.25 µg/mL; INH [5]: 4 µg/mL; INH [6]: >8 µg/mL; INH [7]: 0.5 µg/mL

— ChEMBL document CHEMBL4627274, “Optimized plant compound with potent anti-biofilm activity across gram-negative species” (Bioorg Med Chem, 2020)
